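96-well plates; 48 h exposure; 5 concentrations. Endpoints by linear interpolation between flanking doses. Not reached: highest tested concentration assigned. The concentration for 50% growth inhibition is given as GI50. TGI denotes the concentration required for complete inhibition of growth.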
How the values were obtained:
Assay in all cases: NCI-60 cell line screen, 48 h
LOX IMVI melanoma = system: LOX IMVI melanoma
NCI-H522 lung = system: NCI-H522 lung
COLO 205 colon = system: COLO 205 colon
SN12C renal = system: SN12C renal
SF-539 CNS = system: SF-539 CNS
MDA-MB-435 = system: MDA-MB-435
TK-10 renal = system: TK-10 renal
PC-3 prostate = system: PC-3 prostate
SF-268 CNS = system: SF-268 CNS
M14 melanoma = system: M14 melanoma

| SMILES | GI50 (LOX IMVI melanoma) [µM] | TGI (LOX IMVI melanoma) [µM] | GI50 (NCI-H522 lung) [µM] | TGI (NCI-H522 lung) [µM] | GI50 (COLO 205 colon) [µM] | TGI (COLO 205 colon) [µM] | GI50 (SN12C renal) [µM] | TGI (SN12C renal) [µM] | GI50 (SF-539 CNS) [µM] | TGI (SF-539 CNS) [µM] | GI50 (MDA-MB-435) [µM] | TGI (MDA-MB-435) [µM] | GI50 (TK-10 renal) [µM] | TGI (TK-10 renal) [µM] | GI50 (PC-3 prostate) [µM] | TGI (PC-3 prostate) [µM] | GI50 (SF-268 CNS) [µM] | TGI (SF-268 CNS) [µM] | GI50 (M14 melanoma) [µM] | TGI (M14 melanoma) [µM] |
| --- | --- | --- | --- | --- | --- | --- | --- | --- | --- | --- | --- | --- | --- | --- | --- | --- | --- | --- | --- | --- |
| COc1cnc2c(c1)C(=O)c1c-2n(CCCNCCO)c(=O)c2ccncc12 | 0.431 | 3.9 | 0.607 | 7.26 | 0.82 | 9.05 | 1.08 | 13.6 | 1.4 | 6.95 | 1.31 | 2.98 | 2.05 | 19.3 | 1.44 | 11.1 | 1.28 | 9.26 | 1.93 | 7.16 |
| O=C(CCN1CCN2c3ccccc3CCC2C1)c1ccc(F)cc1 (configuration not stated) |  | > 100 |  | 35.7 |  | 44.4 |  | > 100 |  | 39.9 |  | 47.4 |  | 66 |  | > 100 |  | > 100 |  | > 100 |
| O=C1OC[C@H]2[C@@H]1[C@H]1O[C@@H]2C2=C(CCC2)C1=O |  | > 100 |  | > 100 |  | > 100 |  | > 100 |  | > 100 |  | > 100 |  | > 100 |  | > 100 |  | > 100 |  | > 100 |
| Nc1ccc(S(=O)(=O)Nc2nc3ccccc3nc2N2CCCCCC2)cc1 |  | 33.5 |  | > 100 |  | 33.4 |  | 44.9 |  | 35.7 |  | 41.1 |  | > 100 |  | > 100 |  | > 100 |  | > 100 |
| CC(Oc1ccccc1Cl)C(=O)NN1C(=O)CSC1c1ccccc1 (configuration not stated) |  | > 100 |  | > 100 |  | > 100 |  | > 100 |  | > 100 |  | > 100 |  | > 100 |  | > 100 |  | > 100 |  | > 100 |
| CC(C)C(C/C=C1\CC(CO)(COC(=O)C2CCCCC2)OC1=O)C(C)C (configuration not stated) |  | 32.3 |  | 31.8 |  | 23.6 |  | 31.2 |  | 36.3 |  | > 100 |  | 41.8 |  | 37.2 |  | 33.5 |  | 48.4 |
| c1ccc2c(c1)SCCCSCCSCCCS2 |  | > 100 |  | > 100 |  | > 100 |  | > 100 |  | > 100 |  | > 100 |  | > 100 |  | > 100 |  | > 100 |  | > 100 |
| O=C(Nn1c(-c2ccccc2)nc2ccccc2c1=O)c1ccccc1O |  | > 100 |  | > 100 |  | > 100 |  | > 100 |  | > 100 |  | > 100 |  | > 100 |  | > 100 |  | > 100 |  | > 100 |
| O=c1[nH]n(Cc2ccccc2)c2ccc([N+](=O)[O-])cc12 |  | > 100 |  | > 100 |  | > 100 |  | > 100 |  | > 100 |  | 85.3 |  | > 100 |  | > 100 |  | > 100 |  | > 100 |
| COc1cc(C2c3cc4c(cc3C3OC[C@@H]2C3CO)OCO4)cc(OC)c1OC (some centres not stated) |  | > 100 |  | 47.8 |  | 33.6 | 59.4 | > 100 | 17.7 | 37.3 |  | 51.1 |  | > 100 |  | > 100 |  | > 100 |  | > 100 |
| COc1ccc(C(=O)CC(c2ccccc2)[C@H]2C(c3ccc(OC)cc3)=Nc3c(nc(SC)n(C)c3=O)NC2c2ccccc2)cc1 (some centres not stated) |  | > 100 |  | > 100 |  | > 100 |  | > 100 |  | > 100 |  | > 100 |  | > 100 |  | > 100 |  | > 100 |  | > 100 |
| NN=C(CC(O)(C(F)(F)Cl)C(F)(F)Cl)CC(O)(C(F)(F)Cl)C(F)(F)Cl |  | > 10 |  | > 10 |  | > 10 |  | > 10 |  | > 10 |  | > 10 |  | > 10 |  | > 10 |  | > 10 |  | > 10 |
| CN(C)CCn1c(CO)nc2c1c(=O)n(C)c(=O)n2C |  | > 100 |  | > 100 |  | > 100 |  | > 100 |  | > 100 |  | > 100 |  | > 100 |  | > 100 |  | > 100 |  | > 100 |
| CN(C)Cc1cc(C(=O)/C=C/c2ccccc2)cc(CN(C)C)c1O |  | 17.7 |  | 40.8 |  | 31.9 |  | 30.9 |  | 46.5 |  | > 100 |  | > 100 |  | 36.9 |  | > 100 |  | 63.1 |
| NNC(=O)C1(NC(=O)c2ccccc2)C(c2ccccc2)C(c2ccccc2)=NN1c1ccccc1 (configuration not stated) |  | > 100 |  | > 100 |  | > 100 |  | > 100 |  | > 100 |  | > 100 |  | > 100 |  | > 100 |  | > 100 |  | 54.9 |
| CN1CC2=C(NC(=S)NC2c2ccccc2)/C(=C/c2ccccc2)C1 (configuration not stated) |  | > 100 |  | > 100 |  | > 100 |  | > 100 |  | > 100 |  | > 100 |  | > 100 |  | > 100 |  | > 100 |  | 56.6 |
| CC(C)(C)[Si](C)(C)OCc1cccc(OCCOc2cccc(CO[Si](C)(C)C(C)(C)C)c2[N+](=O)[O-])c1[N+](=O)[O-] |  | > 100 |  | > 100 |  | > 100 |  | > 100 |  | > 100 |  | > 100 |  | > 100 |  | > 100 |  | > 100 |  | > 100 |
| CCc1cc2c(c3c1CCCC3=O)CC1(Cc3ccc(C(=O)OC)cc3C1)C2 (configuration not stated) |  | > 100 |  | > 100 |  | > 100 |  | > 100 |  | > 100 |  | > 100 |  | > 100 |  | > 100 |  | > 100 |  | > 100 |
| CC(=O)NC1C(OCc2ccccc2)OC(CO)C(O)C1OC(C)C(=O)NC(C(=O)NC(CCC(=O)NCCCCNc1c2ccccc2nc2cccc([N+](=O)[O-])c12)C(N)=O)C(C)C (configuration not stated) |  | 4.68 |  | 0.511 |  | 11.6 |  | 9.53 |  | 11.2 |  | 2.84 |  | 32.4 |  | > 30.8 |  | 13.1 |  | 3.32 |
| CN1C(=O)C(O)C[C@@H]1c1ccccc1 (some centres not stated) |  | > 100 |  | > 100 |  | > 100 |  | > 100 |  | > 100 |  | > 100 |  | > 100 |  | > 100 |  | > 100 |  | > 100 |
| O=C(Nc1ccccc1C(=O)NCc1ccccc1)/C(=C/c1ccccc1)NC(=O)c1ccccc1 |  | > 100 |  | > 100 |  | > 100 |  | > 100 |  | > 100 |  | > 100 |  | > 100 |  | > 100 |  | > 100 |  | > 100 |
| COc1ccc2[nH]c(O)c(/C=c3/cc4c(c(-c5ccc(F)c(OC)c5)n3)=Nc3ccccc3-4)c2c1 | 1.72 | 3.29 | 1.81 | 4.14 | 2.56 | 5.87 | 12.9 | 30.5 | 1.86 | 3.37 | 2.39 | 6.01 | 2.91 | 6.95 | 8.11 | 38.4 | 3.68 | 18 | 2 | 4.15 |
| CCCCCCCCCCCCCCCCCCNc1nc(=O)n(C2CC(O)C(COP(=O)(O)O)O2)cc1F (configuration not stated) |  | > 100 |  | > 100 |  | > 100 |  | > 100 |  | > 100 |  | > 100 |  | > 100 |  | > 100 |  | > 100 |  | > 100 |
| O=C(c1cccs1)N1CCN(C(=O)c2cccs2)C1=S |  | 10.8 |  | 35.8 |  | 22.4 |  | 10.1 |  | 4.84 |  | 10.2 |  | 19 |  | 15.6 |  | 20 |  | 19 |
| CCOC(=O)c1cc2c([N+](=O)[O-])c(N)ccc2s1 |  | > 100 |  | > 100 |  | > 100 |  | > 100 |  | > 100 |  | > 100 |  | > 100 |  | > 100 |  | > 100 |  | > 100 |
